PubChem BioAssay (NCI)
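How tested: cells in 96-well plates exposed to compound for 48 hours at five concentrations. GI50 = concentration required for 50% inhibition of growth. TGI marks complete inhibition of growth.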

Legend:
Experiment in all cases: DTP human tumour cell line panel, 48 h
[1] = tested on: HOP-62 NSCLC
[2] = tested on: SR leukemia
[3] = tested on: SF-268 CNS
[4] = tested on: NCI-H23 lung
[5] = tested on: A549 NSCLC
[6] = tested on: SF-539 CNS
[7] = tested on: RXF 393 renal
[8] = tested on: U251 CNS
[9] = tested on: SK-MEL-5 melanoma
[10] = tested on: EKVX NSCLC
[11] = tested on: SK-OV-3 ovarian
[12] = tested on: DU-145 prostate
[13] = tested on: OVCAR-4 ovarian
[14] = tested on: SNB-19 CNS
[15] = tested on: KM12 colon
[16] = tested on: SK-MEL-28 melanoma
[17] = tested on: HCT-116 colon
[18] = tested on: IGROV1 ovarian
[19] = tested on: MDA-MB-231 breast
[20] = tested on: OVCAR-5 ovarian
[21] = tested on: HT29 colon
[22] = tested on: OVCAR-3 ovarian
[23] = tested on: MDA-MB-435
[24] = tested on: HCC-2998 colon
[25] = tested on: MCF7 breast
[26] = tested on: HCT-15 colon
[27] = tested on: T-47D breast
[28] = tested on: BT-549 breast
[29] = tested on: LOX IMVI melanoma
[30] = tested on: HS 578T breast
[31] = tested on: MOLT-4 leukemia
[32] = tested on: NCI/ADR-RES ovarian
[33] = tested on: SN12C renal
[34] = tested on: CCRF-CEM leukemia
[35] = tested on: NCI-H522 lung
[36] = tested on: M14 melanoma
[37] = tested on: NCI-H226 lung
[38] = tested on: SK-MEL-2 melanoma
[39] = tested on: MALME-3M melanoma
[40] = tested on: ACHN renal
[41] = tested on: COLO 205 colon
[42] = tested on: CAKI-1 renal
[43] = tested on: TK-10 renal
[44] = tested on: SNB-75 CNS
[45] = tested on: RPMI-8226 leukemia
[46] = tested on: OVCAR-8 ovarian
[47] = tested on: SW-620 colon
[48] = tested on: K-562 leukemia
[49] = tested on: UO-31 renal
[50] = tested on: UACC-257 melanoma
[51] = tested on: PC-3 prostate
[52] = tested on: UACC-62 melanoma
[53] = tested on: NCI-H460 lung
[54] = tested on: SF-295 CNS
[55] = tested on: 786-0 renal
[56] = tested on: HL-60(TB) leukemia

Structure (SMILES): COc1ccc(-c2c(-c3ccc(C#N)c(F)c3)nc(N3CCC(N)CC3)n(C)c2=O)cc1F
- GI50 [1]: 17.1 µM
- TGI [1]: > 100 µM
- GI50 [2]: 12.2 µM
- TGI [2]: 34.6 µM
- GI50 [3]: 20.4 µM
- TGI [3]: 87 µM
- GI50 [4]: 19.6 µM
- TGI [4]: 91.6 µM
- GI50 [5]: 29.8 µM
- TGI [5]: > 100 µM
- GI50 [6]: 13.8 µM
- TGI [6]: 29.3 µM
- GI50 [7]: 7.41 µM
- TGI [7]: 23.6 µM
- GI50 [8]: 14.6 µM
- TGI [8]: 32.8 µM
- GI50 [9]: 14.9 µM
- TGI [9]: 28.4 µM
- GI50 [10]: 15.5 µM
- TGI [10]: 52.8 µM
- GI50 [11]: 15.8 µM
- TGI [11]: 45.8 µM
- GI50 [12]: 25.5 µM
- TGI [12]: > 100 µM
- GI50 [13]: 29.3 µM
- TGI [13]: > 100 µM
- GI50 [14]: 31.6 µM
- TGI [14]: > 100 µM
- GI50 [15]: 20 µM
- TGI [15]: 41.5 µM
- GI50 [16]: 15.3 µM
- TGI [16]: 29.8 µM
- GI50 [17]: 13.1 µM
- TGI [17]: > 100 µM
- GI50 [18]: 16.3 µM
- TGI [18]: 41.8 µM
- GI50 [19]: 12.5 µM
- TGI [19]: 26.7 µM
- GI50 [20]: 14.4 µM
- TGI [20]: 44.2 µM
- GI50 [21]: 10.4 µM
- TGI [21]: 30.2 µM
- GI50 [22]: 21.7 µM
- TGI [22]: 77.4 µM
- GI50 [23]: 14.4 µM
- TGI [23]: 28.9 µM
- GI50 [24]: 13 µM
- TGI [24]: 26.7 µM
- GI50 [25]: 14.4 µM
- TGI [25]: 34 µM
- GI50 [26]: 21.6 µM
- TGI [26]: 99.2 µM
- GI50 [27]: 14 µM
- TGI [27]: 46.3 µM
- GI50 [28]: 14.6 µM
- TGI [28]: 30.6 µM
- GI50 [29]: 13.1 µM
- TGI [29]: 26 µM
- GI50 [30]: 13.2 µM
- TGI [30]: 44.6 µM
- GI50 [31]: 15.5 µM
- TGI [31]: 46.2 µM
- GI50 [32]: 21.6 µM
- TGI [32]: 63.1 µM
- GI50 [33]: 19.3 µM
- TGI [33]: 79.3 µM
- GI50 [34]: 17.6 µM
- TGI [34]: 53 µM
- GI50 [35]: 13.6 µM
- TGI [35]: 30.7 µM
- GI50 [36]: 17.5 µM
- TGI [36]: 34.9 µM
- GI50 [37]: 50 µM
- TGI [37]: > 100 µM
- GI50 [38]: 18.5 µM
- TGI [38]: 38.6 µM
- GI50 [39]: 13.4 µM
- TGI [39]: 27.5 µM
- GI50 [40]: 15.8 µM
- TGI [40]: 41.5 µM
- GI50 [41]: 13.3 µM
- TGI [41]: 31.1 µM
- GI50 [42]: 13.8 µM
- TGI [42]: 30.6 µM
- GI50 [43]: 12.8 µM
- TGI [43]: 32.4 µM
- GI50 [44]: 10.9 µM
- TGI [44]: 27.7 µM
- GI50 [45]: 18.4 µM
- TGI [45]: 49.1 µM
- GI50 [46]: 33.6 µM
- TGI [46]: > 100 µM
- GI50 [47]: 24.2 µM
- TGI [47]: 96.2 µM
- GI50 [48]: 11.6 µM
- TGI [48]: 28.5 µM
- GI50 [49]: 9.31 µM
- TGI [49]: 22.9 µM
- GI50 [50]: 13.6 µM
- TGI [50]: 29.2 µM
- GI50 [51]: 12 µM
- TGI [51]: 30.6 µM
- GI50 [52]: 16.1 µM
- TGI [52]: 32.9 µM
- GI50 [53]: 19.1 µM
- TGI [53]: 37.1 µM
- GI50 [54]: 15.4 µM
- TGI [54]: 31.9 µM
- GI50 [55]: 11.7 µM
- TGI [55]: 24.7 µM
- GI50 [56]: 10.8 µM
- TGI [56]: 29.1 µM
